Values joined by “and” are separate entries in the source; they are usually repeats but may differ in a detail not shown here. Identical values can stand only once. Like-named read-outs stand apart in the source and are kept apart here.
Test system: patients with ALS
[1] = 50 mg, No Riluzole Use, through Week 28
[2] = 50 mg, Riluzole Use, through Week 28
[3] = 50 mg, double-blind treatment period
[4] = 50 mg, through the end of the study
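Note: adverse event data gathered at every clinic visit and phone contact, after first study drug dose, in a blinded trial, counts of affected subjects.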

## CCCN[C@@H]1CCc2nc(N)sc2C1 [dexpramipexole, (6R)-2-amino-4,5,6,7-tetrahydro-6-(propylamino)benzothiazole]
50 mg
  subjects with increase from baseline in QTcF >30 msec: Four
50 mg and 300 mg groups together, double-blind period
  subjects with decrease in weight >7% from baseline: 30 subjects
[1]
  AE: Anxiety: 1 (4%) N (%)
  AE: Constipation: 4 (17%) N (%)
  AE: Depression: 4 (17%) N (%)
  AE: Dry mouth: 0 N (%)
  AE: Dysarthria: 1 (4%) N (%)
  AE: Dyspnoea: 3 (13%) N (%)
  AE: Fall: 6 (26%) N (%)
  AE: Headache: 1 (4%) N (%)
  AE: Muscular weakness: 7 (30%) N (%)
  AE: Nausea: 2 (9%) N (%)
  AE: Oedema peripheral: 4 (17%) N (%)
  AE: Pharyngolaryngeal pain: 1 (4%) N (%)
  AE: Sinusitis: 1 (4%) N (%)
  AE: Upper respiratory tract infection: 2 (9%) N (%)
  AE: Urinary tract infection: 1 (4%) N (%)
[2]
  AE: Anxiety: 1 (4%) N (%)
  AE: Constipation: 4 (16%) N (%)
  AE: Depression: 2 (8%) N (%)
  AE: Dry mouth: 1 (4%) N (%)
  AE: Dysarthria: 3 (12%) N (%)
  AE: Dyspnoea: 2 (8%) N (%)
  AE: Fall: 5 (20%) N (%)
  AE: Headache: 2 (8%) N (%)
  AE: Muscular weakness: 6 (24%) N (%)
  AE: Nausea: 2 (8%) N (%)
  AE: Oedema peripheral: 3 (12%) N (%)
  AE: Pharyngolaryngeal pain: 3 (12%) N (%)
  AE: Sinusitis: 1 (4%) N (%)
  AE: Upper respiratory tract infection: 3 (12%) N (%)
  AE: Urinary tract infection: 2 (8%) N (%)
50 mg, any post-baseline visit
  incidence of ECGs with QTcB increased >30 msec from baseline: 17%
  subjects with QTcF interval >450 msec: Two
[3]
  AEs related to ALS as assessed by the Investigator: 85%
  subjects with prolonged QTcB: 6 subjects
  subjects with serum chemistry abnormalities of potential clinical significance: 4 subjects
50 mg, through Week 28
  ALS-related TEAE: Affect liability: 2 (4%) N (%)
  ALS-related TEAE: Arthralgia: 1 (2%) N (%)
  ALS-related TEAE: Choking: 2 (4%) N (%)
  ALS-related TEAE: Constipation: 4 (8%) N (%)
  ALS-related TEAE: Contusion: 1 (2%) N (%)
  ALS-related TEAE: Dehydration: 0 N (%)
  ALS-related TEAE: Depression: 1 (2%) N (%)
  ALS-related TEAE: Disease progression: 2 (4%) N (%)
  ALS-related TEAE: Dysarthria: 4 (8%) N (%)
  ALS-related TEAE: Dysphagia: 5 (10%) N (%)
  ALS-related TEAE: Dysphasia: 1 (2%) N (%)
  ALS-related TEAE: Dyspnoea: 4 (8%) N (%)
  ALS-related TEAE: Dyspnoea exertional: 0 N (%)
  ALS-related TEAE: Fall: 10 (21%) N (%)
  ALS-related TEAE: Fatigue: 3 (6%) N (%)
  ALS-related TEAE: Gastrointestinal Disorders: 16 (33%) N (%)
  ALS-related TEAE: General Disorders and Administration Site Conditions: 8 (17%) N (%)
  ALS-related TEAE: Increased upper airway secretion: 1 (2%) N (%)
  ALS-related TEAE: Injury, Poisoning and Procedural Complications: 10 (21%) N (%)
  ALS-related TEAE: Investigations: 3 (6%) N (%)
  ALS-related TEAE: Metabolism and Nutrition Disorders: 1 (2%) N (%)
  ALS-related TEAE: Muscle contractions involuntary: 3 (6%) N (%)
  ALS-related TEAE: Muscle spasticity: 5 (10%) N (%)
  ALS-related TEAE: Muscle twitching: 1 (2%) N (%)
  ALS-related TEAE: Muscular weakness: 12 (25%) N (%)
  ALS-related TEAE: Musculoskeletal and Connective Tissue Disorders: 19 (40%) N (%)
  ALS-related TEAE: Musculoskeletal pain: 1 (2%) N (%)
  ALS-related TEAE: Myalgia: 2 (4%) N (%)
  ALS-related TEAE: Neck pain: 1 (2%) N (%)
  ALS-related TEAE: Nervous System Disorders: 11 (23%) N (%)
  ALS-related TEAE: Oedema peripheral: 3 (6%) N (%)
  ALS-related TEAE: Pain in extremity: 2 (4%) N (%)
  ALS-related TEAE: Psychiatric Disorders: 2 (4%) N (%)
  ALS-related TEAE: Respiratory failure: 4 (8%) N (%)
  ALS-related TEAE: Respiratory, Thoracic and Mediastinal Disorders: 11 (23%) N (%)
  ALS-related TEAE: Salivary hypersecretion: 8 (17%) N (%)
  ALS-related TEAE: Vital capacity decreased: 2 (4%) N (%)
  ALS-related TEAE: Weight decreased: 0 N (%)
  Number of TEAEs: 277
  Number of serious TEAEs: 15
  Number of serious treatment-related TEAE: 1
  Number of severe TEAEs: 17
  Number of treatment-related TEAEs: 35
  TEAE: Anxiety: 2 (4%) N (%)
  TEAE: Arthralgia: 2 (4%) N (%)
  TEAE: Cardiac Disorders: 2 (4%) N (%)
  TEAE: Constipation: 8 (17%) N (%)
  TEAE: Cough: 1 (2%) N (%)
  TEAE: Dehydration: 1 (2%) N (%)
  TEAE: Depression: 6 (13%) N (%)
  TEAE: Dizziness: 0 N (%)
  TEAE: Dry mouth: 2 N (%) and 1 (2%) N (%)
  TEAE: Dysarthria: 4 (8%) N (%)
  TEAE: Dysphagia: 5 (10%) N (%)
  TEAE: Dyspnoea: 5 (10%) N (%)
  TEAE: Fall: 11 (23%) N (%)
  TEAE: Fatigue: 3 (6%) N (%)
  TEAE: Gastrointestinal Disorders: 21 (44%) N (%)
  TEAE: General Disorders and Administration Site Conditions: 14 (29%) N (%)
  TEAE: Headache: 3 (6%) N (%)
  TEAE: Hyperglycaemia: 0 N (%)
  TEAE: Infections and Infestations: 21 (44%) N (%)
  TEAE: Injury, Poisoning and Procedural Complication: 15 (31%) N (%)
  TEAE: Insomnia: 0 N (%)
  TEAE: Metabolism and Nutrition Disorders: 6 (13%) N (%)
  TEAE: Muscle contractions involuntary: 3 (6%) N (%)
  TEAE: Muscle spasticity: 5 (10%) N (%)
  TEAE: Musculoskeletal and Connective Tissue Disorders: 22 (46%) N (%)
  TEAE: Musculoskeletal pain: 2 (4%) N (%)
  TEAE: Nausea: 4 (8%) N (%)
  TEAE: Neck pain: 1 (2%) N (%)
  TEAE: Nervous System Disorders: 16 (33%) N (%)
  TEAE: Pharyngolaryngeal pain: 4 (8%) N (%)
  TEAE: Pneumonia: 3 (6%) N (%)
  TEAE: Pruritus: 3 (6%) N (%)
  TEAE: Psychiatric Disorders: 9 (19%) N (%)
  TEAE: Rash: 2 (4%) N (%)
  TEAE: Respiratory failure: 4 (8%) N (%)
  TEAE: Respiratory, Thoracic and Mediastinal Disorders: 17 (35%) N (%)
  TEAE: Salivary hypersecretion: 8 (17%) N (%)
  TEAE: Sinusitis: 2 (4%) N (%)
  TEAE: Skin and Subcutaneous Tissue Disorders: 14 (29%) N (%)
  TEAE: Tachycardia: 1 (2%) N (%)
  TEAE: Upper respiratory tract infection: 5 (10%) N (%)
  TEAE: Urinary tract infection: 3 (6%) N (%)
  TEAE: Vomiting: 3 (6%) N (%)
  serious TEAE: Acute myocardial infarction: 1 (2%) N (%)
  serious TEAE: Atrial fibrillation: 0 N (%)
  serious TEAE: Blood and Lymphatic System Disorders: 0 N (%)
  serious TEAE: Cardiac Disorders: 1 (2%) N (%)
  serious TEAE: Cardiac failure congestive: 1 (2%) N (%)
  serious TEAE: Cholecystitis acute: 0 N (%)
  serious TEAE: Concussion: 0 N (%)
  serious TEAE: Disease progression: 1 (2%) N (%)
  serious TEAE: Dyspnoea: 1 (2%) N (%)
  serious TEAE: Fall: 0 N (%)
  serious TEAE: Gastrointestinal Disorders: 1 (2%) N (%)
  serious TEAE: General Disorders and Administration Site Conditions: 2 (4%) N (%)
  serious TEAE: Hepatobiliary Disorders: 0 N (%)
  serious TEAE: Ileus: 1 (2%) N (%)
  serious TEAE: Infections and Infestations: 3 (6%) N (%)
  serious TEAE: Injury, Poisoning and Procedural Complications: 0 N (%)
  serious TEAE: Neutropenia: 0 N (%)
  serious TEAE: Pneumonia: 1 (2%) N (%)
  serious TEAE: Pneumonia aspiration: 0 N (%)
  serious TEAE: Pneumonia bacterial: 1 (2%) N (%)
  serious TEAE: Pulmonary embolism: 1 (2%) N (%)
  serious TEAE: Respiratory distress: 1 (2%) N (%)
  serious TEAE: Respiratory failure: 4 (8%) N (%)
  serious TEAE: Respiratory, Thoracic and Mediastinal Disorders: 5 (10%) N (%)
  serious TEAE: Subdural haematoma: 0 N (%)
  serious TEAE: Sudden death: 1 (2%) N (%)
  serious TEAE: Viral infection: 1 (2%) N (%)
  ≧1 TEAE with an outcome of death: 7 N (%) and 7 (15%) N (%)
  ≧1 serious TEAE (including death): 11 N (%) and 11 (23%) N (%)
  ≧1 serious treatment-related TEAE: 1 (2%) N (%)
  ≧1 severe TEAE: 12 (25%) N (%) and 12 N (%)
[4]
  Number of TEAEs: 333
  Number of serious TEAEs: 18
  Number of serious treatment-related TEAEs: 1
  Number of severe TEAEs: 20
  Number of treatment-related TEAEs: 39
  Subjects with a TEAE with action taken of study drug discontinued: 2 N (%) and 2 (4%) N (%)
  subjects with TEAEs with an outcome of death (b230 count): 7 subjects
  ≧1 TEAE with an outcome of death: 7 N (%) and 7 (15%) N (%)
  ≧1 serious TEAE (including death): 14 N (%) and 14 (29%) N (%)
